These results are taken from US20200131473A1, “METHOD OF GENERATING 2 CELL-LIKE STEM CELLS” (IFOM FONDAZIONE ISTITUTO FIRC DI ONCOLOGIA MOLECOLARE, priority 2017, published 2020).

In experiment [1] the test system is pZscan4-Emerald ESCs. The experiment in a line: FACS analysis of Zscan4-Emerald ESCs (Emerald-GFP positive cells). To be noted: for elevated expression of 2C-like specific genes (Zscan4, MERVL) upon APH and HU treatment: inhibitor added under replication stress, flow cytometry and immunoblot. Format: cell-based, mouse. As for the experimental part: All treatments including APH, HU, UV, ATRi, ATMi and Chk1i were added in to fresh ESC medium and the cells were kept in 37° C. and 3% 02 tension for overnight (16-17 hrs) unless mentioned in each particular result section. APH was used at various concentrations ranging from 0.3 uM to 6 uM that is mentioned in each experiment in order to induce mild to acute replication stress response. Similarly, HU was used at 0.1 mM-3 mM. ATMi (KU-55933) and ATRi (VE 822) were used at the concentration of 10 uM and 1 uM respectively. Moreover, Chk1i (UCN-01) at the concentration of 100 nM was used. UV radiation was performed at the dosage ranging from 2 to 10 J/m2. For induction of ETAA1-AAD expression, Dox was used at the concentration of 1 μg/mL for 48 hrs.
ESCs were fixed and permeabilized using Cytoperm/Cytofix kit (BD Biosciences), and subsequently stained for one hour at room temperature with Alexa Fluor® 647 anti-H2AX-Phosphorylated (Ser139) antibody (Biolegend) or P-CHK1-PE conjugated antibody (cell signaling 12268). Cells were washed and acquired on a FACS Calibur instrument or Attune NxT (Thermo Fisher Scientific). For Emerald-GFP acquisition, cells were trypsinized, collected and subsequently acquired without fixation. Cell cycle profiles were acquired after incubation with DAPI (4′,6-diamidino-2-phenylindole) overnight. For Caspase3 FACS analysis after fixation and permeabilization, Cleaved Caspase3 antibody were used for one hr at RT followed by washes and one hr incubation in donkey anti rabbit secondary antibody. […]

Experiment [2] deals with E14 mouse ESCs. The experiment in a line: Drop-seq single cell transcriptional profiling of E14 ESCs. Format: cell-based. As for the experimental part: ESCs from CNTL, APH (6 μM) and APH-ATRi experimental conditions were resuspended in PBS-BSA and processed with a microfluidic device according to the DropSeq Laboratory Protocol V3.1 from McCarroll's Lab website [http://mccarrolllab.com/dropseq/l]. For each condition, 3 distinct aliquots of collected emulsion, each containing 4000 beads underwent reverse transcription (RT) and fragment library preparation using Illumina Nextera XT Library Prep Kit. A distinct barcode was used for each library to allow subsequent demultiplexing of sequencing reads. mRNA sequencing was performed using an Illumina HiSeq2000 instrument, library fragments were sequenced at 50 base pairs (bp) in PE mode. Sequencing reads were aligned to UCSC Mouse Reference Genome version mm10 using STAR (version 2.5.3a), and processed according to DropSeq Alignment Cookbook V1.2 to generate a digital expression matrix of STAMPs (cells) for each experimental condition, which was then furtherly analyzed in the RStudio environment (R version 3.3.3) using Seurat package V2.0 from Satija Lab [http://satijalab.org/seurat/]. Seven-hundred most expressed cells were selected in each condition; genes expressed in less than 3 cells and cells expressing less than 200 genes were pruned from the dataset. Data from CNTL and APH conditions (1399 cells) or CNTL, APH and APH-ATRi conditions (2096 cells) were merged to generate two datasets, which were log normalised and scaled. Expression mean and variance to mean ratio (Log VMR>0.5) were used to estimate data dispersion and select variable genes across the dataset. Respectively 2614 and 2768 genes (in the 2-conditions and 3-conditions datasets) were used in principal component analysis (PCA) to identify the appropriate number of components to include in data modeling. Top 15 components were selected to explain dataset complexity. A shared nearest neighbor (SNN) graph and smart local moving algorithm was used to perform cells clustering; t-SNE (t-stochastic neighbour embedding) analysis was used to reduce (PCA) dimensionality and generate plots of cells distribution.

Experiment [3] relates to morula-stage embryos. The experiment in a line: Mouse chimaera assay. The experiment is classed as in vivo. To be noted: APH-treated mCherry ESCs injected into morula, 24 hrs post injection; 7 out of 35. The protocol:
Briefly, morula stage embryos were bought from Charles River laboratories. They were thawed few hours prior to injection and about five to eight ESC were injected into the perivitelline space of high quality morula-stage embryos using laser-assisted technique and glass micro-capillary tubes. Finally, embryos were cultured for 24 hours at 37 C, 5% CO2 to allow the blastocysts development prior to the microscopic analysis.
For ETAA-1 inducible cells, 8-cell morulae were obtained from superovulated C57BL/6 prepubescent females from Janvier Labs. Ten ESCs were injected into each morula after piercing their zona pellucida with beveled microinjection needle. Embryos were kept in M2 medium during the injection and afterwards in KSOM medium at 37° C. under 5% CO2. Morulae were either cultured for 48 hrs to study ESC contribution at late blastocyst stage (E4.5), or transferred to pseudopregnant females and later dissected at E7.5. Chimerism and ESC contribution to the various embryonic layers were assessed by emission of mCherry fluorescence signal.
For the APH-treated ESCs, frozen morula-stage embryos were purchased from Charles River and Janvier laboratories. Embryos were thawed 2 hrs prior to injection and 4 to 8 ESCs were transferred into the perivitelline space by laser-assisted microinjection method. […]

Entries after “also recorded” stand apart in the source; their conditions may differ.

Consider `C[C@@]1(CO)[C@H](O)CC[C@@]2(C)[C@H]1CC[C@H]1C[C@@H]3C[C@@]12CC[C@]3(O)CO` [APH, aphidicolin], for which the “number of Emerald-GFP positive (Em+) ESCs” value in experiment [1] (RS inducing agents, dose-dependent, qPCR and FACS) is reported as “significant increase”. In experiment [2] (E14 ESCs in LIF plus 2i, APH 6 μM), the “small cell population (cluster 4, 2C-like) in single cell profiling” value is on record as “significantly increased”. Also, in experiment [3], the “chimeric embryos with contribution to the trophectoderm layer of the blastocysts” value is listed as 20%.
As to `CNCc1ccc(-c2cc(-c3nc(-c4ccc(S(=O)(=O)C(C)C)cc4)cnc3N)on2)cc1` [VE 822], the “elevated expression of 2C-like specific genes (Zscan4, MERVL) upon APH and HU treatment” value in experiment [1] was “robustly revert”. In addition, the “elevated expression of 2C-like specific genes (Zscan4, MERVL) upon APH and HU treatment” value in experiment [1] (listed as ATR inhibitor) is given as “robustly suppress”. The “number of Zscan4-Emerald positive cells” value in experiment [1] (normal culture condition, ATRi 1 uM, ATMi 10 uM) is “markedly reduce; also recorded: marked reduction”. For the same compound, in experiment [2] (APH plus ATRi), the “number of APH-induced 2C-like gene expressing cells (Zscan4d+, Gm8300+)” value is given as “marked reduction” and the “number of RS-induced cells in the newly emerging cluster” value is given as “significantly reduced”.
